Reference: patent publication US12291519B2, “2-hydroxycycloalkane-1-carbamoyl” (Idorsia Pharmaceuticals Ltd, priority 2019, dated 2025)

Experiments:
human Gal-3 (hGal-3) = human Gal-3 (hGal-3) (Homo sapiens (Human), UniProt P17931); test: Competitive binding assay: biotinylated hGal-3 binding to microplate-adsorbed asialofetuin (ASF); settings: Activity on hGal-3; binding of biotinylated hGal-3 to ASF-coated plates; mean values
How it was run: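 Serially diluted compounds competed with biotinylated human Gal-3 for binding to plate-adsorbed asialofetuin over 3 h at 4 °C. Bound Gal-3 was detected with streptavidin-peroxidase (80 ng/mL, 1 h, 4 °C) and ABTS substrate. IC50 values are means of several measurements.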

human Gal-1 (hGal-1) = test: Competitive binding assay: biotinylated hGal-1 binding to microplate-adsorbed asialofetuin (ASF); settings: Activity on hGal-1; binding of biotinylated hGal-1 to ASF-coated plates; mean values
Sequence of human Gal-1 (hGal-1) (P09382 2-135 limits assumed): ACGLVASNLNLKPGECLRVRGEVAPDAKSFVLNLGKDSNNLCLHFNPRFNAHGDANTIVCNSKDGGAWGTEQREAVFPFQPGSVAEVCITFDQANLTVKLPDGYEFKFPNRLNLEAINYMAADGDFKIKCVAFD
How it was run: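 Biotinylated hGal-1 (300–1000 ng/mL; optionally a cysteine-free all-serine variant) incubated 3 h at 4 °C with compound on asialofetuin-coated plates, then streptavidin-peroxidase 1 h at 4 °C. ABTS readout at OD 410 nm after 30–45 min; IC50 given as mean of several runs.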

Sequence of human Gal-3 (hGal-3) (P17931 whole entry): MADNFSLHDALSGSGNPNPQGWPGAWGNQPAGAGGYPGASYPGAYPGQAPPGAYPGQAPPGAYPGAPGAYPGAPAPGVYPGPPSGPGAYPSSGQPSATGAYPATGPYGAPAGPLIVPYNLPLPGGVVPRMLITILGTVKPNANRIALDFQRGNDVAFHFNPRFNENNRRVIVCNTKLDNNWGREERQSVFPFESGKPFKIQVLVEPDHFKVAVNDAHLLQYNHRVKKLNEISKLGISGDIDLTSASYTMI

## CO[C@@H]1[C@@H](n2cc(-c3cc(F)c(F)c(F)c3)nn2)[C@@H](O)[C@@H](CO)O[C@H]1C(=O)N(c1cc(Cl)ccc1F)[C@H]1CCCC[C@@H]1O [Example 105, (2R,3R,4S,5R,6R)-N-(5-chloro-2-fluorophenyl)-5-hydroxy-N-((1S,2S)-2-hydroxycyclohexyl)-6-(hydroxymethyl)-3-methoxy-4-(4-(3,4,5-trifluorophenyl)-1H-1,2,3-triazol-1-yl)tetrahydro-2H-pyran-2-carboxamide]
Human Gal-3 (hGal-3)
  IC50: 0.014 µM
Human Gal-1 (hGal-1)
  IC50: 0.136 µM

## CO[C@@H]1[C@@H](n2cc(-c3cc(F)c(F)c(F)c3)nn2)[C@@H](O)[C@@H](CO)O[C@H]1C(=O)N(c1cc2sc(C)nc2cc1C)[C@H]1CCCC[C@@H]1O [Example 106, (2R,3R,4S,5R,6R)-N-(2,5-dimethylbenzo[d]thiazol-6-yl)-5-hydroxy-N-((1S,2S)-2-hydroxycyclohexyl)-6-(hydroxymethyl)-3-methoxy-4-(4-(3,4,5-trifluorophenyl)-1H-1,2,3-triazol-1-yl)tetrahydro-2H-pyran-2-carboxamide]
Human Gal-3 (hGal-3)
  IC50: 0.056 µM
Human Gal-1 (hGal-1)
  IC50: 0.143 µM

## CO[C@@H]1[C@@H](n2cc(-c3cc(F)c(F)c(F)c3)nn2)[C@@H](O)[C@@H](CO)O[C@H]1C(=O)N(c1ccc2nc(Cl)sc2c1)[C@H]1CCCC[C@@H]1O [Example 107, (2R,3R,4S,5R,6R)-N-(2-chlorobenzo[d]thiazol-6-yl)-5-hydroxy-N-((1S,2S)-2-hydroxycyclohexyl)-6-(hydroxymethyl)-3-methoxy-4-(4-(3,4,5-trifluorophenyl)-1H-1,2,3-triazol-1-yl)tetrahydro-2H-pyran-2-carboxamide]
Human Gal-3 (hGal-3)
  IC50: 0.317 µM
Human Gal-1 (hGal-1)
  IC50: 1.2 µM

## COc1cc(C#N)cc(N(C(=O)[C@@H]2O[C@H](CO)[C@H](O)[C@H](n3cc(-c4cc(F)c(F)c(F)c4)nn3)[C@H]2OC)[C@H]2CCCC[C@@H]2O)c1 [Example 108, (2R,3R,4S,5R,6R)-N-(3-cyano-5-methoxyphenyl)-5-hydroxy-N-((1S,2S)-2-hydroxycyclohexyl)-6-(hydroxymethyl)-3-methoxy-4-(4-(3,4,5-trifluorophenyl)-1H-1,2,3-triazol-1-yl)tetrahydro-2H-pyran-2-carboxamide]
Human Gal-3 (hGal-3)
  IC50: 0.024 µM
Human Gal-1 (hGal-1)
  IC50: 1.57 µM

## CO[C@@H]1[C@@H](n2cc(-c3cc(F)c(F)c(F)c3)nn2)[C@@H](O)[C@@H](CO)O[C@H]1C(=O)N(c1cc(Br)ccc1C)[C@H]1CCCC[C@@H]1O [Example 109, (2R,3R,4S,5R,6R)-N-(5-bromo-2-methylphenyl)-5-hydroxy-N-((1S,2S)-2-hydroxycyclohexyl)-6-(hydroxymethyl)-3-methoxy-4-(4-(3,4,5-trifluorophenyl)-1H-1,2,3-triazol-1-yl)tetrahydro-2H-pyran-2-carboxamide]
Human Gal-3 (hGal-3)
  IC50: 0.017 µM
Human Gal-1 (hGal-1)
  IC50: 0.1 µM

## CO[C@@H]1[C@@H](n2cc(-c3cc(F)c(F)c(F)c3)nn2)[C@@H](O)[C@@H](CO)O[C@H]1C(=O)N(c1ccc(Cl)cc1)[C@H]1CCCC[C@@H]1O [Example 111, (2R,3R,4S,5R,6R)-N-(4-chlorophenyl)-5-hydroxy-N-((1S,2S)-2-hydroxycyclohexyl)-6-(hydroxymethyl)-3-methoxy-4-(4-(3,4,5-trifluorophenyl)-1H-1,2,3-triazol-1-yl)tetrahydro-2H-pyran-2-carboxamide]
Human Gal-3 (hGal-3)
  IC50: 0.158 µM
Human Gal-1 (hGal-1)
  IC50: 4.22 µM

## CO[C@@H]1[C@@H](n2cc(-c3cc(F)c(F)c(F)c3)nn2)[C@@H](O)[C@@H](CO)O[C@H]1C(=O)N(c1cc(F)cc(C#N)c1)[C@H]1CCCC[C@@H]1O [Example 113, (2R,3R,4S,5R,6R)-N-(3-cyano-5-fluorophenyl)-5-hydroxy-N-((1S,2S)-2-hydroxycyclohexyl)-6-(hydroxymethyl)-3-methoxy-4-(4-(3,4,5-trifluorophenyl)-1H-1,2,3-triazol-1-yl)tetrahydro-2H-pyran-2-carboxamide]
Human Gal-3 (hGal-3)
  IC50: 0.018 µM
Human Gal-1 (hGal-1)
  IC50: 0.52 µM

## CO[C@@H]1[C@@H](n2cc(-c3cc(F)c(F)c(F)c3)nn2)[C@@H](O)[C@@H](CO)O[C@H]1C(=O)N(c1cccc(F)c1)[C@H]1CCCC[C@@H]1O [Example 114, (2R,3R,4S,5R,6R)-N-(3-fluorophenyl)-5-hydroxy-N-((1S,2S)-2-hydroxycyclohexyl)-6-(hydroxymethyl)-3-methoxy-4-(4-(3,4,5-trifluorophenyl)-1H-1,2,3-triazol-1-yl)tetrahydro-2H-pyran-2-carboxamide]
Human Gal-3 (hGal-3)
  IC50: 0.049 µM
Human Gal-1 (hGal-1)
  IC50: 2.01 µM

## CO[C@@H]1[C@@H](n2cc(-c3cc(F)c(F)c(F)c3)nn2)[C@@H](O)[C@@H](CO)O[C@H]1C(=O)N(c1cccc(C#N)c1)[C@H]1CCCC[C@@H]1O [Example 115, (2R,3R,4S,5R,6R)-N-(3-cyanophenyl)-5-hydroxy-N-((1S,2S)-2-hydroxycyclohexyl)-6-(hydroxymethyl)-3-methoxy-4-(4-(3,4,5-trifluorophenyl)-1H-1,2,3-triazol-1-yl)tetrahydro-2H-pyran-2-carboxamide]
Human Gal-3 (hGal-3)
  IC50: 0.025 µM
Human Gal-1 (hGal-1)
  IC50: 1 µM

## CO[C@@H]1[C@@H](n2cc(-c3cc(F)c(F)c(F)c3)nn2)[C@@H](O)[C@@H](CO)O[C@H]1C(=O)N(c1cccc(C(F)(F)F)c1)[C@H]1CCCC[C@@H]1O [Example 116, (2R,3R,4S,5R,6R)-5-hydroxy-N-((1S,2S)-2-hydroxycyclohexyl)-6-(hydroxymethyl)-3-methoxy-N-(3-(trifluoromethyl)phenyl)-4-(4-(3,4,5-trifluorophenyl)-1H-1,2,3-triazol-1-yl)tetrahydro-2H-pyran-2-carboxamide]
Human Gal-3 (hGal-3)
  IC50: 0.026 µM
Human Gal-1 (hGal-1)
  IC50: 1.95 µM

## CO[C@@H]1[C@@H](n2cc(-c3cc(F)c(F)c(F)c3)nn2)[C@@H](O)[C@@H](CO)O[C@H]1C(=O)N(c1cc(F)cc(F)c1)[C@H]1CCCC[C@@H]1O [Example 117, (2R,3R,4S,5R,6R)-N-(3,5-difluorophenyl)-5-hydroxy-N-((1S,2S)-2-hydroxycyclohexyl)-6-(hydroxymethyl)-3-methoxy-4-(4-(3,4,5-trifluorophenyl)-1H-1,2,3-triazol-1-yl)tetrahydro-2H-pyran-2-carboxamide]
Human Gal-3 (hGal-3)
  IC50: 0.038 µM
Human Gal-1 (hGal-1)
  IC50: 0.978 µM

## COc1cc(F)cc(N(C(=O)[C@@H]2O[C@H](CO)[C@H](O)[C@H](n3cc(-c4cc(F)c(F)c(F)c4)nn3)[C@H]2OC)[C@H]2CCCC[C@@H]2O)c1 [Example 118, (2R,3R,4S,5R,6R)-N-(3-fluoro-5-methoxyphenyl)-5-hydroxy-N-((1S,2S)-2-hydroxycyclohexyl)-6-(hydroxymethyl)-3-methoxy-4-(4-(3,4,5-trifluorophenyl)-1H-1,2,3-triazol-1-yl)tetrahydro-2H-pyran-2-carboxamide]
Human Gal-3 (hGal-3)
  IC50: 0.026 µM
Human Gal-1 (hGal-1)
  IC50: 1.48 µM

## CO[C@@H]1[C@@H](n2cc(-c3cc(F)c(F)c(F)c3)nn2)[C@@H](O)[C@@H](CO)O[C@H]1C(=O)N(c1cc(C)cc(F)c1)[C@H]1CCCC[C@@H]1O [Example 119, (2R,3R,4S,5R,6R)-N-(3-fluoro-5-methylphenyl)-5-hydroxy-N-((1S,2S)-2-hydroxycyclohexyl)-6-(hydroxymethyl)-3-methoxy-4-(4-(3,4,5-trifluorophenyl)-1H-1,2,3-triazol-1-yl)tetrahydro-2H-pyran-2-carboxamide]
Human Gal-3 (hGal-3)
  IC50: 0.03 µM
Human Gal-1 (hGal-1)
  IC50: 1.83 µM
